Target: T1, human Kv72+3 channels (Homo sapiens, UniProt O43525+O43526)
T1 construct: expressed in transfected cells; host or cells: CHO K1 cells, stably expressing
Experiment: patch-clamp set-up using CHO K1 cell lines stably expressing the human Kv72+3 channels
Type: cell-based
Details: at a concentration of 3 μM, CHO K1 cells stably expressing human Kv72+3 channels
Method: For example, at a concentration of 3 μM, Compound A4 induces an increase in current amplitude in the order 190%, which is an indication of its potent Kv72+3 activating activity.

increase in current amplitude: ~190%
SMILES: CC(C)c1nc2ccccc2c(=O)n1NC(=O)[C@@H]1C[C@H]1c1ccccc1 (relative stereo) [Compound A4, (Trans)-2-Phenyl-cyclopropanecarboxylic acid (2-isopropyl-4-oxo-4H-quinazolin-3-yl)-amide]
